Results on seven molecules are retold here after patent US20090227563A1, “HERBICIDAL COMPOSITIONS HAVING IMPROVED EFFECT” (Bayer CropScience AG, priority 2005, published 2009).

Each structure is given as a SMILES string. Several values for one entry are separate records, joined by “and”; a condition that tells them apart may be missing. Identical values can stand only once.

Holding throughout (type): in vivo
Experiment [1] concerns Lolium multiflorum (LOLMU). The experiment is described as follows: Glasshouse trial on activity boost, post-emergence spraying, visual rating. The procedure:
(§1) Seeds of monocot and dicot weeds and crop plants are sown in sandy loam soil in wood fibre pots or in plastic pots, and are covered with soil and cultivated under good growth conditions in the glasshouse and also, during the vegetation period, outdoors outside the glasshouse. 2-3 weeks after sowing, the trial plants are treated at the one- to three-leaf stage. The test compounds, formulated as wettable powders (WP) or liquids (EC), are applied by spraying to the plants and the soil surface in various doses, with a water application rate of 300 l/ha (converted) and with the addition of penetrants (0.2% to 0.4%) and where appropriate an ammonium salt. After the trial plants had stood in the glasshouse for about 3 to 4 weeks under optimum growth conditions, the activity of the products was rated visually in comparison to untreated controls (activity in %, i.e. 0%=no activity or as control, 100%=all plants died).
(§2) For rapeseed oil methyl ester (RME) the following tables specify concentration in % a.i. by volume for ammonium sulphate (AMS) in g/l in the spray liquor.
(§3) ALOMY=Alopecurus myosuroides AVEFA=Avena fatua LOLMU=Lolium multiflorum LOLRI=Lolium rigidum
(§4) ALOMY=Alopecurus myosuroides AVEFA=Avena fatua LOLMU=Lolium multiflorum SETVI=Setaria viridis

The test system of experiment [2] is Lolium rigidum (LOLRI). Described as above. Here is the method: as §1, §2, §3
The subject of experiment [3] is Alopecurus myosuroides (ALOMY). The description is as above. Here is the method:
as §1, §2, §3, §4
(§5) ALOMY=Alopecurus myosuroides AVEFA=Avena fatua LOLMU=Lolium multiflorum SETVI=Setaria viridis BROER=Bromus erectus

The subject of experiment [4] is Avena fatua (AVEFA). Described as above. The procedure: as §1, §2, §3, §4, §5
The test system of experiment [5] is Bromus erectus (BROER). The description is as above. The conditions noted are these: 5 g/ha. Here is the method:
as §1, §5

Experiment [6] concerns APESV. Described as above. As to conditions: 5 g/ha. Here is the method: as §1
In experiment [7] the test system is LOLME. The experiment is described as above. As to conditions: 5 g/ha. The procedure:
as §1

The test system of experiment [8] is Avena fatua (AVEFA). The experiment is described as follows: Plot trials (about 10 m2, 9 trials), post-emergence treatment. The conditions noted are these: 5 g/ha, sum of all trials. Here is the method: (§6) In plots measuring approximately 10 m^2, in 9 trials, post-emergence treatments were carried out in 2-3 repetitions with compound (I-1-c-1). The weed population was the natural population and/or a sown population specifically geared to the objective. The active ingredient (I-1-c-1) was delivered as an EC formulation at the stated application rates with a penetrant of the formula (III-c-1) at a concentration of 0.3 g/l in 300 l of water, as a tank mix. In the elements of the trial with ammonium sulphate (AMS) the salt was added at 1 g/l to the spray liquor. Evaluation was made on the day of maximum activity. The activities reported in Table 5 are those obtained over the sum of all the trials.
(§7) AGRRE=Agropyron repens ALOMY=Alopecurus myosuroides AVEFA=Avena fatua

Experiment [9] deals with Agropyron repens (AGRRE). Described as above. The conditions noted are these: 5 g/ha, sum of all trials. The procedure:
as §6, §7

The subject of experiment [10] is Alopecurus myosuroides (ALOMY). The experiment is described as above. The conditions noted are these: 5 g/ha, sum of all trials. The procedure:
as §6, §7

Experiment [11] relates to Setaria viridis (SETVI). Put plainly: Glasshouse trial on activity boost, post-emergence spraying, visual rating. Here is the method: as §1, §2, §4
The mark [12] stands for this setting: 50 g/ha, RME (0.25%) + AMS (6.6 g/l).
The mark [13] stands for this setting: 25 g/ha, RME (0.25%) + AMS (3.3 g/l).
Where [14] appears, read: 50 g/ha, RME (0.25%) + AMS (3.3 g/l).
The mark [15] stands for this setting: Genapol LRO (0.33%) + AMS (3.3 g/l).
Where [16] appears, read: 5 g/ha, Genapol LRO (0.33%) + AMS (3.3 g/l).
Where [17] appears, read: (III-c-1) (0.3 g/l) + AMS (1 g/l).
The mark [18] stands for this setting: 12.5 g/ha, RME (0.25%) + AMS (3.3 g/l).

For the molecule `CCc1cc(-c2ccc(Cl)cc2)cc(C)c1C1=C(O)C2(CCC(OC)CC2)OC1=O` (stereo not drawn) [I-2-a-1], the Activity in experiment [1] (25 g/ha, RME (0.25%)) is 30%; in experiment [1] (50 g/ha, RME (0.25%)), 70%; in experiment [2] (25 g/ha, RME (0.25%)), 20%; in experiment [2] (50 g/ha, RME (0.25%)) it was 40%; in experiment [2] (setting [12]), 80% and 40%; in [3] (50 g/ha, RME (0.25%)) it was 30%. Besides, the Activity in [3] (setting [12]) was found to be 70%; in experiment [3] (100 g/ha, RME (0.25%)), 30%; in experiment [3] (100 g/ha, RME (0.25%) + AMS (6.6 g/l)), 70%.
As for `CCc1cccc(CC)c1C1=C(O)[C@]2(CC[C@H](OC)CC2)NC1=O` [I-1-a-4], the Activity in experiment [1] (25 g/ha, RME (0.25%)) is 2%; in [1] (setting [13]), 75%; in [1] (50 g/ha, RME (0.25%)), 5%; in experiment [1] (setting [14]), 90%; in [4] (25 g/ha, RME (0.25%)), 3%; in experiment [4] (setting [13]), 10%. For the same molecule, the Activity is 5% in experiment [4] (50 g/ha, RME (0.25%)); 30% in experiment [4] (setting [14]); 3% in experiment [3] (25 g/ha, RME (0.25%)); 50% in experiment [3] (setting [13]); 5% in [3] (50 g/ha, RME (0.25%)); 70% in experiment [3] (setting [14]).
With `CCOC(=O)OC1=C(c2c(CC)cc(Cl)cc2OC)C(=O)NC12CCC(OC)CC2` (stereo not drawn) [I-1-c-1], the Activity stood at 73% in [5] (Genapol LRO (0.33%)); 97% in experiment [5] (setting [15]); 93% in [6] (Genapol LRO (0.33%)); 97% in experiment [6] (setting [15]); 86% in [7] (Genapol LRO (0.33%)); 97% in [7] (setting [15]). Moreover, the Activity in experiment [4] (5 g/ha, Genapol LRO (0.33%)) is 75%; in experiment [4] (setting [16]), 100%; in experiment [3] (5 g/ha, Genapol LRO (0.33%)), 73%; in [3] (setting [16]) it was 99%; in experiment [8] (setting [17]) it was 90%; in experiment [8] ((III-c-1) (0.3 g/l)), 80%. Besides, the Activity in experiment [9] (setting [17]) is given as 90%; in [9] ((III-c-1) (0.3 g/l)) it was 80%; in experiment [10] (setting [17]), 72%; in experiment [10] ((III-c-1) (0.3 g/l)), 67%.
In the case of `CCc1cc(Cl)cc(OC)c1-c1c(O)n2n(c1=O)CCCC2` [I-8-a-1], the Activity was 10% in [1] (12.5 g/ha, RME (0.25%)); 70% in [1] (setting [18]); 80% in [1] (25 g/ha, RME (0.25%)); 95% in [1] (setting [13]); 30% in experiment [4] (12.5 g/ha, RME (0.25%)); 70% in experiment [4] (setting [18]). The Activity worked out at 40% in experiment [4] (25 g/ha, RME (0.25%)); 80% in experiment [4] (setting [13]); 5% in [3] (12.5 g/ha, RME (0.25%)); 50% in [3] (setting [18]); 50% in [3] (25 g/ha, RME (0.25%)); 70% in [3] (setting [13]).
`CCc1cc(Br)cc(Cl)c1C1=C(O)C(C)(C2CC2)NC1=O` (stereo not drawn) [I-1-a-2]: the Activity is reported as 5% in experiment [11] (12.5 g/ha, RME (0.25%)); 60% in [11] (setting [18]); 20% in experiment [11] (25 g/ha, RME (0.25%)); 90% in [11] (setting [13]); 50% in experiment [11] (50 g/ha, RME (0.25%)); 93% in experiment [11] (setting [14]).
As to `CCc1cc(C)cc(Br)c1C1=C(O)C(C)(C)NC1=O` [I-1-a-6], the Activity was determined as 5% in experiment [1] (50 g/ha, RME (0.25%)); 20% in experiment [1] (50 g/ha, RME (0.25%) + AMS (0.33 g/l)); 50% in experiment [1] (50 g/ha, RME (0.25%) + AMS (1 g/l)); 65% in [1] (setting [14]); 50% in experiment [11] (12.5 g/ha, RME (0.25%)); 65% in experiment [11] (12.5 g/ha, RME (0.25%) + AMS (0.33 g/l)). Further, the Activity in [11] (12.5 g/ha, RME (0.25%) + AMS (1 g/l)) is listed as 75%; in experiment [11] (setting [18]) it was 90%.
Take `CCc1cc(C)cc(OC)c1C1=C(O)C2CCCN2C1=O` (stereo not drawn) [I-1-a-3]: the Activity in experiment [11] (25 g/ha, RME (0.25%)) stood at 15%; in [11] (setting [13]) it was 70%; in experiment [11] (50 g/ha, RME (0.25%)), 93%; in [11] (setting [14]) it was 95%; in [11] (100 g/ha, RME (0.25%)), 93%; in [11] (100 g/ha, RME (0.25%) + AMS (3.3 g/l)), 99%.
